Tests used:
[1] = Phase I safety and tolerability in healthy volunteers; format: in vivo, human
Procedure: Compound B was administered to healthy volunteers in a 2-part study comprising single dose administration (Stage A) and multidose administration (Stage B).
The objectives of the Phase I trials were to determine the safety, tolerability and pharmacokinetics of single and multiple oral doses of Compound B in healthy volunteers. The double-blind studies were conducted at a Phase I unit in The Netherlands. The protocol included safety measures designed to capture the potential human adverse effects. A total of 65 healthy subjects have been exposed to doses of Compound B (41 single dose, 24 multiple dose).
In Stage A, fifty five (55) healthy male subjects aged 18-50 years were randomised (3:1) to receive a single oral dose of either placebo or Compound B at one of 7 dose levels (25, 50, 100, 200, 300, 500 or 800 mg).
In Stage B, thirty two (32) healthy male and female subjects aged 45-75 years (eight subjects per dose level) were randomised (3:1) to receive a daily oral dose over 7 consecutive days of either placebo or Compound B at one of 4 dose levels (200, 400, 600 or 800 mg). Each dose level comprised of 4 males and 4 females; the randomisation schedule ensuring that 1 subject/sex received placebo and 3 subjects/sex received Compound B.

[2] = Neurotoxicity assay: MTS viability of primary cortical neuronal cultures; format: cell-based, mouse; conditions: BL6Jx129sv, mouse, primary cortical neuronal cultures, Neuronal cells, read-out: Cytotoxicity (% viable at 1 and 10 uM); for viability at 4 days, 1 uM: test compound 1 uM; for viability at 4 days, 10 uM: test compound 10 uM
[3] = In vivo toxicity, visual observations; conditions: 30 mg/kg, number of days
[4] = Cytotoxicity: viability of M17 cells; conditions: human, M17 neuroblastoma cells, Cytotoxicity (% viable at 1 and 10 uM); for viability at 1 uM: test compound 1 uM; for viability at 10 uM: test compound 10 uM
[5] = Blood brain barrier penetration (brain:plasma ratio after IV dose); format: in vivo; conditions: nominal dose 5 mg/kg, male Swiss Outbred mice
Procedure: A bolus injection of each of the test compound (50 μL of a 3 mg/mL aqueous solution containing 40% propylene glycol and 10% ethanol) was administered by tail vein injection to male Swiss Outbred mice (5-7 weeks of age).
At 5 and 60 min post-dose (n=3 mice at each time point), blood was collected by cardiac puncture and the whole brain was removed by making an incision through the back of the skull. Mice were anaesthetised approximately 3-4 min prior to blood and brain harvest with an intraperitoneal injection of ketamine and xylazine (133 mg/kg and 10 mg/kg, respectively).
The whole brain was placed into preweighed polypropylene vials and stored at −20° C. until analysis. On the day of analysis, the whole brain was homogenised in 3 parts of water (on ice to reduce the potential for ex vivo brain degradation) and an aliquot of the brain homogenate and plasma was analysed for compound concentration by LCMS. Standards were prepared by spiking blank brain homogenate and both samples and standards were processed by adding acetonitrile to the tissue homogenate, centrifuging and injecting an aliquot of the supernatant onto the LCMS.
To ensure complete recovery of compound from the brain, brain homogenate was spiked with compound (in 50% acetonitrile:50% water) to a nominal concentration of 500 ng/mL. The concentration of compound in the supernatant was then determined by LCMS and compared to the supernatant concentration when compound was added following precipitation with acetonitrile.

[6] = Mice plasma concentration; format: in vivo; conditions: for Mice plasma concentration: presence in plasma at one or two time points (between 30 min and 4 h); for Mice plasma concentration in Tg mice: one or two time points (between 30 min and 4 h)
[7] = tested on: M17 human neuroblastoma cells; experiment: Cytotoxicity: viability of M17 cells
[8] = E Log D (chromatographic method, pH 7.4); format: physicochemical
Procedure: Effective Log D values were measured using a chromatographic method employing a SUPELCOSIL LC-ABZ column using an octanol saturated mobile phase at pH 7.4. See F. Lombardo et al, J. Med. Chem. 2000, 43, 2922-2928.

in vitro = conditions: human, Cytotoxicity (% viable at 1 and 10 uM)
[9] = tested on: primary cortical neuronal cultured cells; experiment: Neurotoxicity assay: MTS viability of primary cortical neuronal cultures; format: cell-based, mouse

Row | SMILES | viability at 4 days, 1 uM [2] [%] | viability at 4 days, 10 uM [2] [%] | Toxicity at 30 mg/kg [3] | viability at 1 uM [4] [%] | viability at 10 uM [4] [%] | B:P Ratio ([5]; 5 min post dose) | B:P Ratio ([5]; 60 min post dose) | Mice plasma concentration [6] | also measured
1 | CN(C)Cc1ccc2c(Cl)cc(Cl)c(O)c2n1 [Compound B] | – | – | – | – | – | – | – | – | incidence of adverse events ([1]; Stage A, single oral dose 25-800 mg, healthy male volunteers aged 18 to 50 years): 43.9%; tolerability ([1]; Stage A, single oral dose, healthy male volunteers aged 18 to 50 years): well tolerated; tolerability ([1]; Stage B, daily oral dose over 7 days (200-800 mg), healthy subjects aged 45-75 years): generally well tolerated
2 | O=c1c2c(Cl)cc(Cl)c(O)c2ncn1Cc1ccccn1 | 99 | 98 | 10 days, none | 102 | 98.9 | 0.16 | 0.10 | Up to 984 ng/mL | –
3 | O=c1c2c(Cl)cc(Cl)c(O)c2ncn1-c1ccccn1 [drawing 288] | – | – | 10 days, none | – | – | – | – | Up to 144.2 ng/mL | Cytotoxicity (% viable at 1 and 10 uM) ([7]; test compound 1 uM): 107.8%; Cytotoxicity (% viable at 1 and 10 uM) ([7]; test compound 10 uM): 89.2%
4 | O=c1c2c(Cl)cc(Cl)c(O)c2ncn1CC1CC1 | 116 | 105 | 11 days, none | 96.2 | 76.8 | 0.12 | 0.07 | Up to 2698 ng/mL | –
5 | Cc1noc(C)c1Cn1cnc2c(O)c(Cl)cc(Cl)c2c1=O | 99 | 72 | 10 days, none | 104 | 76 | 0.18 | 0.08 | Up to 3644 ng/mL | –
6 | O=c1c2c(Cl)cc(Cl)c(O)c2ncn1-c1ccc(F)cc1 | 98 | 67 | 5 days, none | 93.2 | 47.3 | – | – | – | Mice plasma concentration in Tg mice [6]: Up to 120 ng/mL in Tg mice; ElogD (E) [8]: 5.32
7 | CN(C)Cc1ccc2c(Cl)cc(Cl)c(O)c2n1.Cl [drawing 119] | 84 | 72 | None | 94 | 54.3 | 12.85 | 9.45 | Up to 500 ng/ml ng/mL | –
8 | Cc1nc(Cn2cnc3c(O)c(Cl)cc(Cl)c3c2=O)cs1 | 100 | 93 | 10 days, none | 97 | 95.7 | 0.10 at 5 min, 0.10 at 60 min | 0.10 at 5 min, 0.10 at 60 min | Up to 2439 ng/mL | –
9 | Oc1c(I)cc(Cl)c2cccnc12 | 90 | 77 | none | 107 | 72.7 | 0.20 | 0.17 | Up to 700 ng/mL | ElogD (E) [8]: 1.85
10 | Cn1cnc(CCNC(=O)c2ccc3c(Cl)cc(Cl)c(O)c3n2)c1 | 93 | 88 | 10 days, none | 108 | 82.6 | 0.06 | 0.20 | Up to 11605 ng/mL | –
11 | O=c1c2cccc(O)c2ncn1Cc1cn2ccccc2n1 | – | – | – | – | – | – | – | – | viability at 1 uM (in vitro): 95%; viability at 10 uM (in vitro): 98.4%
12 | O=c1c2c(Cl)cc(Cl)c(O)c2ncn1C1CC1 | 91 | 77 | 10 days, none | 105 | 72 | 0.26 | 0.24 | Up to 5000 ng/mL | –
13 | O=c1c2ccc(I)c(O)c2ncn1CC1CC1 | – | – | 10 days, none | 111 | 65.1 | 0.07 | 0.06 | Up to 2508 ng/mL | –
14 | CCCc1cnc2c(O)c(I)ccn2c1=O | – | – | 10 days, none | 80.8 | 47.6 | 0.02 | 0.03 | Up to 11742 ng/ml ng/mL | –
15 | Oc1c(N2CCOCC2)ncc2cccnc12 | 104 | 98 | 10 days, mild toxic signs | 112 | 93.7 | – | – | – | Mice plasma concentration in Tg mice [6]: Below 80 ng/mL in Tg mice; ElogD (E) [8]: 1.45
16 | CCC(C)n1cnc2c(O)c(Cl)cc(Cl)c2c1=O (stereo not shown) [drawing 189] | – | – | 10 days, none | – | – | – | – | Up to 2949 ng/mL | Cytotoxicity (% viable at 1 and 10 uM) ([9]; test compound 1 uM): 94%; Cytotoxicity (% viable at 1 and 10 uM) ([9]; test compound 10 uM): 67%; Cytotoxicity (% viable at 1 and 10 uM) ([7]; test compound 1 uM): 99.2%; Cytotoxicity (% viable at 1 and 10 uM) ([7]; test compound 10 uM): 68.6%
17 | O=c1c2c(Cl)cc(Cl)c(O)c2ncn1N1CCOCC1 | 105 | 70 | 10 days, none | 95.9 | 80.9 | – | – | Up to 45.2 ng/mL | –

From patent US20100069393A1, “METHOD OF TREATMENT AND AGENTS USEFUL FOR SAME” (PRANA BIOTECHNOLOGY LIMITED, priority 2006, published 2010)
